Results from a melting point compilation (Tetko et al.; mined from patent text by program, amines drawn as free bases though some values may be those of a salt).

With `CC(=C\c1ccccc1)/C=C(\C)C(=O)NCCCCCC(=O)NO` the melting point was 120 to 122 °C. In the case of `CCOC(=O)c1nc2ccccc2n(CCO)c1=O`, the melting point is reported as 137 to 138 °C. Molecule `COCC(=O)Nc1cccc2c1C(=O)N(C1CCC(=O)NC1=O)C2=O` (stereo not given) has a melting point of 246 to 248 °C. `CCC(OC(C)=O)c1ccc(Cl)c2nc3n(c12)CCCN3c1ccc(OC)nc1C` (stereo not given) gave a melting point of 157 to 159 °C. `Cc1cc(-n2cccn2)c2cccc(OCc3c(Cl)ccc(S(=O)(=O)N4CCC[C@H]4CO)c3Cl)c2n1` showed a melting point of 65 °C. With `O=C(O)Cn1c(-c2ccc([N+](=O)[O-])cc2)nc2cccnc21` the melting point was 249 to 251 °C. With `CCCOc1ccccc1C=C1Oc2ccc(C(=O)O)cc2C1=O` the melting point was 228 to 229 °C. `CCN(CC)CCNC(=O)c1cc(I)cc2c(F)ccnc12` showed a melting point of 79 to 81 °C. With `CN(C)N=Nc1c[nH]c(=O)[nH]c1=O` the melting point was 166 to 167 °C. `O=[N+]([O-])C=C(NCCCCc1nc[nH]c1Br)NCCCCc1nc[nH]c1Br` showed a melting point of 198 to 200 °C. For `CSc1ncc(CN)c(NC2CCCC2)n1`, the melting point was 58 to 60 °C. In the case of `CC(c1oc2ccccc2c(=O)c1-c1ccccc1)n1nc(-c2cccc(O)c2)c2c(N)ncnc21` (stereo not given), the melting point is reported as 212 to 216 °C. In the case of `Cn1cc(C(=O)O)c(=O)c2c3cc(N4CCC(O)(c5cccc(C(F)(F)F)c5)CC4)c(F)cc3ncc21`, the melting point is reported as 300 °C. `OCCC1CC2CCN1CC2` (stereo not given) gave a melting point of 62 to 64 °C. In the case of `CC(=O)OC[C@H]1OCC(=O)[C@@H](OC(C)=O)[C@@H]1OC(C)=O`, the melting point is reported as 86 to 88 °C. For `CCCCCCCCCC(C)NC(=O)C=C(C)c1cccc(NC(=O)CCCC(=O)O)c1` (stereo not given), the melting point was 115 to 118 °C. `O=C(OCCCSc1cccc2nccn12)c1ccccc1` showed a melting point of 60 to 61 °C. `COc1cc(OC)c([C@@H]2CCCC[C@H]2O)c(O)c1C(C)=O` (relative stereo) showed a melting point of 162 to 164 °C. In the case of `CS(=O)(=O)Nc1cc(NC(=O)CN2C(=O)c3ccccc3C2=O)ccc1Oc1ccccc1`, the melting point is reported as 208 to 209 °C. With `O=C(O)Cc1ncc2c(n1)-c1ccc(Cl)cc1C(c1ccccc1F)=NC2` the melting point was 138 to 140 °C. In the case of `C=C(F)C(=O)Oc1c(I)cc(C(F)(F)F)cc1I`, the melting point is reported as 93 to 95 °C. `N#Cc1ccc(OCC(O)CN2CCSCC2)cc1` (stereo not given) gave a melting point of 94 to 95 °C. Work on `CC(COc1cccc2ccccc12)Nc1ccc(C(=O)O)cc1` (stereo not given) yielded a melting point of 194 to 197 °C. `Cn1ncc2c(C(F)F)cc(Cl)nc21` gave a melting point of 105 °C. In the case of `COc1ccc(CSc2cc(C(=O)Nc3ccc(C#N)cc3)ccn2)cc1`, the melting point is reported as 201 to 203 °C. In the case of `CCn1cc(C(=O)O)c(=O)c2cc(F)c(O)cc21`, the melting point is reported as > 250 °C. For `O=C1NC(=O)c2c1c(-c1ccccc1Cl)cc1c2c2cc(O)ccc2n1CCS(=O)(=O)c1ncn[nH]1`, the melting point was 301 to 304 °C. With `COC(=O)c1c(OCc2ccccc2)ccc2c1CC[C@H](NC(C)(C)C)[C@@H]2O` (relative stereo) the melting point was 104 to 105 °C. `O=C1N(Cc2noc(C3CC3)n2)c2ccccc2C12COc1cc3c(cc12)OCO3` (stereo not given) gave a melting point of 136 to 137 °C. `COc1cc(O)ccc1OCc1ccccc1` showed a melting point of 84 °C. `CCOC(=O)CC(NC(=O)c1ccccc1)C(=O)c1cccs1` (stereo not given) gave a melting point of 75 °C. Molecule `O=C(C=Cc1cccnc1)c1ccccc1OCc1ccccc1` has a melting point of 117 to 119 °C. `CC(C)(C)OC(=O)Nc1cc(NCCO)c(I)cc1[N+](=O)[O-]` gave a melting point of 130 to 148 °C. In the case of `O=C1CCC(c2ccccc2)(c2ccccc2)[C@@H]2CN(C(=S)Cc3ccccc3)C[C@H]12` (racemic), the melting point is reported as 221 °C. Work on `CC(C)CC(=O)Nc1ccc2oc3c(c2c1)CCCCCC3` yielded a melting point of 154 to 155 °C. `CC(CC(O)(C(=O)O)C(F)(F)F)c1ccccc1` (stereo not given) showed a melting point of 145 to 146 °C. In the case of `O=S1(=O)c2cccc3c(Cl)cc(Cl)c(c23)N1CCCN1CC=C(c2ccccc2)CC1`, the melting point is reported as 126 °C. In the case of `COc1cc(C=O)ccc1OCc1cn(-c2ccccn2)nc1C`, the melting point is reported as 141 to 142 °C. For `COC(=O)c1[nH]c2ccccc2c1Oc1ccc(Cl)cc1[N+](=O)[O-]`, the melting point was 171 to 172 °C. `CCCN1C(=O)C2CC(c3ccc(N(C)C)cc3)(C2)C1=O` showed a melting point of 134 to 135 °C.
